Broadly, the EC50 is the concentration giving half of the maximal effect. A higher EC50 goes with a less potent agent.

Our source for the EC50 values is US20240246964A1 (Arbutus Biopharma Corporation, priority 2021, published 2024).

In the assay the target is human PD-L1 (Homo sapiens (Human), UniProt Q9NZQ7). The assay is described as follows: T cell activation luciferase reporter cell culture system (T Cell Activation Assay). Particulars: luciferase reporter assay; PD-L1 aAPC/CHO-K1 cells with PD-1 effector Jurkat T cells. It is filed as cell-based.
human PD-L1, sequence (Q9NZQ7 19-290): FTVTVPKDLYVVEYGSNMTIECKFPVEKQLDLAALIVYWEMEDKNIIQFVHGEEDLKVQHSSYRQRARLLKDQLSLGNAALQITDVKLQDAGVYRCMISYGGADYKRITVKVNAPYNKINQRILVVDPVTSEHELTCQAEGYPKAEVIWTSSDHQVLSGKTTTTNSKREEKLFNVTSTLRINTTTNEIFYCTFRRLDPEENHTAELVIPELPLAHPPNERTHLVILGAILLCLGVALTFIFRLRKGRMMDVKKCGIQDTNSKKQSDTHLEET
`COc1cc(-c2nccc(-c3cccc(-c4ccc(CN5CC6(CCN(C(C)=O)C6)C5)c(OC)n4)c3Cl)c2Cl)ccc1CN1CC2(CCN(C(C)=O)C2)C1` [Example 671, 1-(2-((6-(3-(2-(4-((6-Acetyl-2,6-diazaspiro[3.4]octan-2-yl)methyl)-3-methoxyphenyl)-3-chloropyridin-4-yl)-2-chlorophenyl)-2-methoxypyridin-3-yl)methyl)-2,6-diazaspiro[3.4]octan-6-yl)ethan-1-one] gave an EC50 of 29.6 nM.

Take `COc1cc(-c2nccc(-c3cccc(NC(=O)c4ccc(CN5CC6(CNC(=O)C6)C5)cn4)c3Cl)c2Cl)ccc1CN1CC2(CNC(=O)C2)C1` [Example 672, N-(2-Chloro-3-(3-chloro-2-(3-methoxy-4-((7-oxo-2,6-diazaspiro[3.4]octan-2-yl)methyl)phenyl)pyridin-4-yl)phenyl)-5-((7-oxo-2,6-diazaspiro[3.4]octan-2-yl)methyl)picolinamide]: the EC50 was determined as 217 nM.

As to `COc1cc(-c2nccc(-c3cccc(NC(=O)c4ccc(CNC5CCN(C(C)=O)CC5)cn4)c3Cl)c2Cl)ccc1CNC1CCN(C(C)=O)CC1` [Example 673, 5-(((1-Acetylpiperidin-4-yl)amino)methyl)-N-(3-(2-(4-(((1-acetylpiperidin-4-yl)amino)methyl)-3-methoxyphenyl)-3-chloropyridin-4-yl)-2-chlorophenyl)picolinamide], the EC50 stood at 234 nM.

For `COc1cc(-c2nccc(-c3cccc(NC(=O)c4ccc(CNC5CCOCC5)cn4)c3Cl)c2Cl)ccc1CNC1CCOCC1` [Example 674, N-(2-Chloro-3-(3-chloro-2-(3-methoxy-4-(((tetrahydro-2H-pyran-4-yl)amino)methyl)phenyl)pyridin-4-yl)phenyl)-5-(((tetrahydro-2H-pyran-4-yl)amino)methyl)picolinamide], the EC50 stood at 337 nM.

In turn, `COc1nc(-c2cccc(-c3ccnc(-c4ccc(CNC5CCN(C(C)=O)CC5)c(OC(F)F)c4)c3Cl)c2Cl)ccc1CN1CC2(C1)CN(C(C)=O)C2` [Example 690, 1-(4-((4-(4-(3-(5-((6-Acetyl-2,6-diazaspiro[3.3]heptan-2-yl)methyl)-6-methoxypyridin-2-yl)-2-chlorophenyl)-3-chloropyridin-2-yl)-2-(difluoromethoxy)benzyl)amino)piperidin-1-yl)ethan-1-one] gave an EC50 of 42.2 nM.

In the case of `COCC(=O)N1CC2(CN(Cc3ccc(-c4cccc(-c5ccnc(-c6ccc(CN7CC8(C7)CN(C(C)=O)C8)c(OC)c6)c5Cl)c4Cl)nc3OC)C2)C1` [Example 691, 1-(6-((6-(3-(2-(4-((6-Acetyl-2,6-diazaspiro[3.3]heptan-2-yl)methyl)-3-methoxyphenyl)-3-chloropyridin-4-yl)-2-chlorophenyl)-2-methoxypyridin-3-yl)methyl)-2,6-diazaspiro[3.3]heptan-2-yl)-2-methoxyethan-1-one], the EC50 was 67.6 nM. Against the preceding molecule, the EC50 is about 1.6-fold higher.

Turning to `COc1cc(-c2nccc(-c3cccc(-c4ccc(CN5CC6(CCN(C(C)=O)C6)C5)c(OC)n4)c3Cl)c2Cl)ccc1CN1CCC(O)CC1` [Example 692, 1-(2-((6-(2-Chloro-3-(3-chloro-2-(4-((4-hydroxypiperidin-1-yl)methyl)-3-methoxyphenyl)pyridin-4-yl)phenyl)-2-methoxypyridin-3-yl)methyl)-2,6-diazaspiro[3.4]octan-6-yl)ethan-1-one], the midpoint of the response, the EC50, lay at 43.5 nM. Against the preceding molecule, the EC50 is about 1.6-fold lower.

`CNCc1ccc(C(=O)Nc2cccc(-c3ccnc(-c4ccc(CNC)c(OC)c4)c3Cl)c2Cl)nc1` [Example 694, N-(2-chloro-3-(3-chloro-2-(3-methoxy-4-((methylamino)methyl)phenyl)pyridine-4-yl)phenyl)-5-((methylamino)methyl)picolinamide] returned a half-maximal effective concentration (EC50) of 69.7 nM.

Molecule `COc1cc(-c2nccc(-c3cccc(NC(=O)c4ccc(CNC5CC6(COC6)C5)cn4)c3Cl)c2Cl)ccc1CNC1CC2(COC2)C1` (stereo not shown) [Example 695, 5-(((2-Oxaspiro[3.3]heptan-6-yl)amino)methyl)-N-(3-(2-(4-(((2-oxaspiro[3.3]heptan-6-yl)amino)methyl)-3-methoxyphenyl)-3-chloropyridin-4-yl)-2-chlorophenyl)picolinamide] returned a half-maximal effective concentration (EC50) of 169 nM. Compared with the last molecule, the EC50 is about 2.4-fold higher.

Molecule `CNCc1ccc(C(=O)Nc2cccc(-c3ccnc(-c4ccc(CNC)c(OC)c4)c3Cl)c2C)nc1` [Example 696, N-(3-(3-Chloro-2-(3-methoxy-4-((methylamino)methyl)phenyl)pyridin-4-yl)-2-methylphenyl)-5-((methylamino)methyl)picolinamide] gave an EC50 of 244 nM.

The molecule `COc1nc(-c2cccc(-c3ccnc(-c4cc(OC)c5nc(CNCC6(O)CC6)nn5c4)c3Cl)c2Cl)ccc1CNC1CCN(C(C)=O)CC1` [Example 699, 1-(4-(((6-(2-chloro-3-(3-chloro-2-(2-((((1-hydroxycyclopropyl)methyl)amino)methyl)-8-methoxy-[1,2,4]triazolo[1,5-a]pyridin-6-yl)pyridin-4-yl)phenyl)-2-methoxypyridin-3-yl)methyl)amino)piperidin-1-yl)ethan-1-one] registered an EC50 of 51.5 nM.

`COc1cc(-c2nccc(-c3cccc(NC(=O)c4ccc(CNCCO)cn4)c3C)c2Cl)ccc1CNC1CCN(C(C)=O)CC1` [Example 700, N-(3-(2-(4-(((1-Acetylpiperidin-4-yl)amino)methyl)-3-methoxyphenyl)-3-chloropyridin-4-yl)-2-methylphenyl)-5-(((2-hydroxyethyl)amino)methyl)picolinamide] gave an EC50 of 124 nM.

`COc1cc(-c2nccc(-c3cccc(NC(=O)c4ccc(CN5CC6(COC6)C5)cn4)c3Cl)c2Cl)ccc1CN1CC2(COC2)C1` [Example 701, 5-((2-Oxa-6-azaspiro[3.3]heptan-6-yl)methyl)-N-(3-(2-(4-((2-oxa-6-azaspiro[3.3]heptan-6-yl)methyl)-3-methoxyphenyl)-3-chloropyridin-4-yl)-2-chlorophenyl)picolinamide] came in with an EC50 of 410 nM.

For the molecule `COc1cc(-c2nccc(-c3cccc(NC(=O)c4ccc(CNCCCF)cn4)c3Cl)c2Cl)ccc1CNCCCF` [Example 702, N-(2-Chloro-3-(3-chloro-2-(4-(((3-fluoropropyl)amino)methyl)-3-methoxyphenyl)pyridin-4-yl)phenyl)-5-(((3-fluoropropyl)amino)methyl)picolinamide], the EC50 came to 266 nM.

Turning to `COc1nc(-c2ccnc(-c3cccc4c3CCC[C@@H]4Nc3nc(OC)c(CNC4(C(=O)O)CC4)cc3C(F)(F)F)c2Cl)ccc1CNC[C@@H]1CCC(=O)N1` [Example 704], the EC50 is ≥ 10000 nM.

Regarding `COc1cc(-c2nccc(-c3cccc4c3CCC[C@@H]4Nc3nc(OC)c(CNC4(C(=O)O)CC4)cc3C(F)(F)F)c2Cl)ccc1CNC[C@@H]1CCC(=O)N1` [Example 705, 1-(((6-(((S)-5-(3-Chloro-2-(3-methoxy-4-(((((S)-5-oxopyrrolidin-2-yl)methyl)amino)methyl)phenyl)pyridin-4-yl)-1,2,3,4-tetrahydronaphthalen-1-yl)amino)-2-methoxy-5-(trifluoromethyl)pyridin-3-yl)methyl)amino)cyclopropane-1-carboxylic acid], the EC50 is ≥ 10000 nM.

With `COc1nc(-c2ccnc(-c3cccc4c3CCC[C@@H]4Nc3nc(OC)c(CNC[C@@H]4CCC(=O)N4)cc3C(F)(F)F)c2Cl)ccc1CNC[C@@H]1CCC(=O)N1` [Example 709, (S)-5-((((3′-Chloro-6-methoxy-2′-((S)-5-((6-methoxy-5-(((((S)-5-oxopyrrolidin-2-yl)methyl)amino)methyl)-3-(trifluoromethyl)pyridin-2-yl)amino)-5,6,7,8-tetrahydronaphthalen-1-yl)-[2,4′-bipyridin]-5-yl)methyl)amino)methyl)pyrrolidin-2-one], the EC50 is ≥ 10000 nM.

`COc1cc(-c2nccc(-c3cccc4c3CCC[C@@H]4Nc3nc(OC)c(CNC[C@@H]4CCC(=O)N4)cc3C(F)(F)F)c2Cl)ccc1CNC[C@@H]1CCC(=O)N1` [Example 710, (S)-5-((((6-(((S)-5-(3-Chloro-2-(3-methoxy-4-(((((S)-5-oxopyrrolidin-2-yl)methyl)amino)methyl)phenyl)pyridin-4-yl)-1,2,3,4-tetrahydronaphthalen-1-yl)amino)-2-methoxy-5-(trifluoromethyl)pyridin-3-yl)methyl)amino)methyl)pyrrolidin-2-one]: the EC50 is ≥ 10000 nM.

`COc1cc(-c2ncnc(-c3cccc(-c4ccc(CNCCO)c(OC)n4)c3Cl)c2Cl)ccc1CN1CC2(CNC(=O)C2)C1` [Example 711, 2-(4-(5-Chloro-6-(2-chloro-3-(5-(((2-hydroxyethyl)amino)methyl)-6-methoxypyridin-2-yl)phenyl)pyrimidin-4-yl)-2-methoxybenzyl)-2,6-diazaspiro[3.4]octan-7-one]: the response was half-maximal at 195 nM (EC50).

Turning to `COc1nc(-c2cccc(-c3ccnc(-c4cc(OC)c5nc(CNCCCF)nn5c4)c3Cl)c2Cl)ccc1CNC1CCN(C(C)=O)CC1` [Example 713, 1-(4-(((6-(2-Chloro-3-(3-chloro-2-(2-(((3-fluoropropyl)amino)methyl)-8-methoxy-[1,2,4]triazolo[1,5-a]pyridin-6-yl)pyridin-4-yl)phenyl)-2-methoxypyridin-3-yl)methyl)amino)piperidin-1-yl)ethan-1-one], the concentration giving a half-maximal response (EC50) turned out to be 130 nM.

In turn, `COc1nc(-c2cccc(-c3ccnc(-c4cc(OC)c5nc(CN(C)CCO)nn5c4)c3Cl)c2Cl)ccc1CNC1CCN(C(C)=O)CC1` [Example 715, 1-(4-(((6-(2-Chloro-3-(3-chloro-2-(2-(((2-hydroxyethyl)(methyl)amino)methyl)-8-methoxy-[1,2,4]triazolo[1,5-a]pyridin-6-yl)pyridin-4-yl)phenyl)-2-methoxypyridin-3-yl)methyl)amino)piperidin-1-yl)ethan-1-one] registered a concentration giving a half-maximal response (EC50) of 581 nM. Against the preceding molecule, the EC50 is about 4.5-fold higher.

Regarding `COc1cc(-c2ncnc(-c3cccc(-c4ccc(CNC5CCN(C(C)=O)CC5)c(OC)n4)c3Cl)c2OC)ccc1CNC1CCN(C(C)=O)CC1` [Example 717, 1-(4-(((6-(3-(6-(4-(((1-Acetylpiperidin-4-yl)amino)methyl)-3-methoxyphenyl)-5-methoxypyrimidin-4-yl)-2-chlorophenyl)-2-methoxypyridin-3-yl)methyl)amino)piperidin-1-yl)ethan-1-one], the EC50 was ≥ 10000 nM.
